# Experimental data from EP0659438A1, “Conjugates consisting of peptidic T cell antigens and cell binding groups, and their use for therapy” (BOEHRINGER MANNHEIM GMBH, priority 1993, dated 1995).
# Tested on: T-cell clone SP2.2
# Experiment: cells
# Type: cell-based, human
SMILES,effect on free peptide induced proliferation,inhibition of conjugate induced proliferation,reduction of P2-induced proliferation [%],"inhibition at 300 µM (Homo sapiens, T-cell, read-out: inhibition of conjugate induced proliferation) [%]"
CC(=O)N[C@@H](CC(C)C)C(=O)N[C@@H](CC(C)C)C(=O)N[C@H](C=O)CCCNC(=N)N [Leupeptin],almost no effect,can inhibit,–,–
CCN(CC)CCCC(C)Nc1ccnc2cc(Cl)ccc12 (centres unmarked) [Chloroquine],–,can inhibit,50,100
